From patent US8883841B2, “Oncogenic ras-specific cytotoxic compound and methods of use thereof” (The Board of Regents of the University of Texas System, priority 2005, dated 2014)
“Also recorded” adds a separate entry of the source.

Legend:
H322 cells = test: Cell viability, H322 lung cancer cells; format: cell-based, human
MDA-MB-231/ATCC = test: NCI in-vitro testing, MDA-MB-231/ATCC (Breast Cancer)
H460 cells = test: cells; settings: Homo sapiens, NCI-H460, read-out: IC50 (−LogM), H460, Lung (converted)
EKVX = test: NCI in-vitro testing, EKVX (Non-Small Cell Lung Cancer)
RPMI-8226 = test: NCI in-vitro testing, RPMI-8226 (Leukemia)
SNB-19 = test: NCI in-vitro testing, SNB-19 (CNS Cancer)
HCT-116 = test: NCI in-vitro testing, HCT-116 (Colon Cancer)
HT29 = test: NCI in-vitro testing, HT29 (Colon Cancer)
SK-OV-3 = test: NCI in-vitro testing, SK-OV-3 (Ovarian Cancer)
CAKI-1 = test: NCI in-vitro testing, CAKI-1 (Renal Cancer); settings: for Percent Growth: CAK1-1
SF-295 = test: NCI in-vitro testing, SF-295 (CNS Cancer)
HS 578T = test: NCI in-vitro testing, HS 578T (Breast Cancer)
HOP-92 = test: NCI in-vitro testing, HOP-92 (Non-Small Cell Lung Cancer)
SN12C = test: NCI in-vitro testing, SN12C (Renal Cancer)
HCC-2998 = test: NCI in-vitro testing, HCC-2998 (Colon Cancer)
ACHN = test: NCI in-vitro testing, ACHN (Renal Cancer)

With `O=Cc1cn(Cc2ccc(Cl)cc2)c2ccccc12` [Oncrasin K001, 1H-Indole-3-carboxaldehyde, 1-[(4-chlorophenyl)methyl]-(9CI)] the “IC50 (−LogM)” value (H322 cells; H322, Lung) was 4.5 −LogM, the “toxicity to H322 cells” value (H322 cells; at 33 μM (the highest concentration tested), ras wild-type) was “not toxic” and the “effect on H322 cells” value (H322 cells; wild-type Ras, listed as Oncrasin-1) was “minimal effect; also recorded: not effective”.
In the case of `O=Cc1cn(Cc2cccc(Cl)c2)c2ccccc12` [Oncrasin K027, 1-(3-chlorobenzyl)-1H-indole-3-carbaldehyde], the GI50 (MDA-MB-231/ATCC; Homo sapiens, MDA-MB-231) is reported as 11 µM, the CC50 (MDA-MB-231/ATCC; Homo sapiens, MDA-MB-231, read-out: LC50) is reported as over 100 µM and the TGI (MDA-MB-231/ATCC; MDA-MB-231/ATCC) is reported as 4.23E−5 Molar. The “Percent Growth” value (MDA-MB-231/ATCC; MDA-MB-231/ATCC, Log10 Concentration −4.0 Molar) was −32%, the “Percent Growth” value (MDA-MB-231/ATCC; MDA-MB-231/ATCC, Log10 Concentration −5.0 Molar) was 55% and the “Percent Growth” value (MDA-MB-231/ATCC; MDA-MB-231/ATCC, Log10 Concentration −6.0 Molar) was 109%. For the same molecule, the “Percent Growth” value (MDA-MB-231/ATCC; MDA-MB-231/ATCC, Log10 Concentration −7.0 Molar) was 120%, the “Percent Growth” value (MDA-MB-231/ATCC; MDA-MB-231/ATCC, Log10 Concentration −8.0 Molar) was 105% and the IC50 (H460 cells) was 0.00398 µM. For the same molecule, the TGI (EKVX) was 6.47E−5 Molar, the GI50 (EKVX; Homo sapiens) was 21 µM and the CC50 (EKVX; Homo sapiens, read-out: LC50) was over 100 µM. For the same molecule, the “Percent Growth” value (EKVX; Log10 Concentration −4.0 Molar) was −22%, the “Percent Growth” value (EKVX; Log10 Concentration −5.0 Molar) was 94% and the “Percent Growth” value (EKVX; Log10 Concentration −6.0 Molar) was 107%. For the same molecule, the “Percent Growth” value (EKVX; Log10 Concentration −7.0 Molar) was 105%, the “Percent Growth” value (EKVX; Log10 Concentration −8.0 Molar) was 103% and the GI50 (RPMI-8226; Homo sapiens, RPMI-8226) was 0.372 µM. For the same molecule, the CC50 (RPMI-8226; Homo sapiens, RPMI-8226, read-out: LC50) was over 100 µM, the TGI (RPMI-8226; RPMI-8226) was 3.19E−6 Molar and the “Percent Growth” value (RPMI-8226; RPMI-8226, Log10 Concentration −4.0 Molar) was −35%. The “Percent Growth” value (RPMI-8226; RPMI-8226, Log10 Concentration −5.0 Molar) was −23%, the “Percent Growth” value (RPMI-8226; RPMI-8226, Log10 Concentration −6.0 Molar) was 24% and the “Percent Growth” value (RPMI-8226; RPMI-8226, Log10 Concentration −7.0 Molar) was 85%. For the same molecule, the “Percent Growth” value (RPMI-8226; RPMI-8226, Log10 Concentration −8.0 Molar) was 119%, the GI50 (SNB-19; Homo sapiens, SNB-19) was 17.6 µM and the CC50 (SNB-19; Homo sapiens, SNB-19, read-out: LC50) was over 100 µM. For the same molecule, the TGI (SNB-19; SNB-19) was 5.89E−5 Molar, the “Percent Growth” value (SNB-19; SNB-19, Log10 Concentration −4.0 Molar) was −24% and the “Percent Growth” value (SNB-19; SNB-19, Log10 Concentration −5.0 Molar) was 74%. For the same molecule, the “Percent Growth” value (SNB-19; SNB-19, Log10 Concentration −6.0 Molar) was 97%, the “Percent Growth” value (SNB-19; SNB-19, Log10 Concentration −7.0 Molar) was 97% and the “Percent Growth” value (SNB-19; SNB-19, Log10 Concentration −8.0 Molar) was 103%. The TGI (HCT-116; HCT-116) was 1.06E−5 Molar, the “Percent Growth” value (HCT-116; HCT-116, Log10 Concentration −4.0 Molar) was −84% and the “Percent Growth” value (HCT-116; HCT-116, Log10 Concentration −5.0 Molar) was 2%. The “Percent Growth” value (HCT-116; HCT-116, Log10 Concentration −6.0 Molar) was 10%, the “Percent Growth” value (HCT-116; HCT-116, Log10 Concentration −7.0 Molar) was 30% and the “Percent Growth” value (HCT-116; HCT-116, Log10 Concentration −8.0 Molar) was 68%. It also gave a GI50 (HCT-116; Homo sapiens, HCT-116) of 0.0294 µM, a CC50 (HCT-116; Homo sapiens, HCT-116, read-out: LC50) of 60.6 µM and a TGI (HT29; HT29) of 2.01E−6 Molar. The “Percent Growth” value (HT29; HT29, Log10 Concentration −4.0 Molar) was −66%, the “Percent Growth” value (HT29; HT29, Log10 Concentration −5.0 Molar) was 29% and the “Percent Growth” value (HT29; HT29, Log10 Concentration −6.0 Molar) was 68%. For the same molecule, the “Percent Growth” value (HT29; HT29, Log10 Concentration −7.0 Molar) was 79%, the “Percent Growth” value (HT29; HT29, Log10 Concentration −8.0 Molar) was 103% and the GI50 (HT29; Homo sapiens, HT-29) was 0.00183 µM. The CC50 (HT29; Homo sapiens, HT-29, read-out: LC50) was 6.76 µM, the GI50 (SK-OV-3; Homo sapiens, SK-OV-3) was 1.82 µM and the CC50 (SK-OV-3; Homo sapiens, SK-OV-3, read-out: LC50) was over 100 µM. For the same molecule, the TGI (SK-OV-3; SK-OV-3) was 2.95E−5 Molar, the “Percent Growth” value (SK-OV-3; SK-OV-3, Log10 Concentration −4.0 Molar) was −18% and the “Percent Growth” value (SK-OV-3; SK-OV-3, Log10 Concentration −5.0 Molar) was 16%. For the same molecule, the “Percent Growth” value (SK-OV-3; SK-OV-3, Log10 Concentration −6.0 Molar) was 62%, the “Percent Growth” value (SK-OV-3; SK-OV-3, Log10 Concentration −7.0 Molar) was 85% and the “Percent Growth” value (SK-OV-3; SK-OV-3, Log10 Concentration −8.0 Molar) was 96%. For the same molecule, the “Percent Growth” value (CAKI-1; Log10 Concentration −4.0 Molar) was 1%, the “Percent Growth” value (CAKI-1; Log10 Concentration −5.0 Molar) was −47% and the “Percent Growth” value (CAKI-1; Log10 Concentration −6.0 Molar) was −21%. The “Percent Growth” value (CAKI-1; Log10 Concentration −7.0 Molar) was −3%, the “Percent Growth” value (CAKI-1; Log10 Concentration −8.0 Molar) was 1% and the GI50 (CAKI-1; Homo sapiens, CAKI-1) was under 0.01 µM. It also gave a CC50 (CAKI-1; Homo sapiens, CAKI-1, read-out: LC50) of over 100 µM, a GI50 (SF-295; Homo sapiens, SF-295) of 1.43 µM and a CC50 (SF-295; Homo sapiens, SF-295, read-out: LC50) of over 100 µM. For the same molecule, the TGI (SF-295; SF-295) was 3.52E−5 Molar, the “Percent Growth” value (SF-295; SF-295, Log10 Concentration −4.0 Molar) was −15% and the “Percent Growth” value (SF-295; SF-295, Log10 Concentration −5.0 Molar) was 18%. The “Percent Growth” value (SF-295; SF-295, Log10 Concentration −6.0 Molar) was 56%, the “Percent Growth” value (SF-295; SF-295, Log10 Concentration −7.0 Molar) was 80% and the “Percent Growth” value (SF-295; SF-295, Log10 Concentration −8.0 Molar) was 104%. For the same molecule, the TGI (HS 578T; HS 578T) was 2.75E−6 Molar, the “Percent Growth” value (HS 578T; HS 578T, Log10 Concentration −4.0 Molar) was −38% and the “Percent Growth” value (HS 578T; HS 578T, Log10 Concentration −5.0 Molar) was 30%. For the same molecule, the “Percent Growth” value (HS 578T; HS 578T, Log10 Concentration −6.0 Molar) was 91%, the “Percent Growth” value (HS 578T; HS 578T, Log10 Concentration −7.0 Molar) was 98% and the “Percent Growth” value (HS 578T; HS 578T, Log10 Concentration −8.0 Molar) was 105%. The GI50 (HS 578T; Homo sapiens, Hs-578T) was 4.68 µM, the CC50 (HS 578T; Homo sapiens, Hs-578T, read-out: LC50) was over 100 µM and the “Percent Growth” value (HOP-92; HOP-92, Log10 Concentration −4.0 Molar) was −60%. For the same molecule, the “Percent Growth” value (HOP-92; HOP-92, Log10 Concentration −5.0 Molar) was 34%, the “Percent Growth” value (HOP-92; HOP-92, Log10 Concentration −6.0 Molar) was 89% and the “Percent Growth” value (HOP-92; HOP-92, Log10 Concentration −7.0 Molar) was 81%. For the same molecule, the “Percent Growth” value (HOP-92; HOP-92, Log10 Concentration −8.0 Molar) was 97%, the GI50 (HOP-92; Homo sapiens, HOP-92) was 5.17 µM and the CC50 (HOP-92; Homo sapiens, HOP-92, read-out: LC50) was 77.8 µM. It also gave a TGI (SN12C) of 1.94E−5 Molar, a GI50 (SN12C; Homo sapiens) of 3.56 µM and a CC50 (SN12C; Homo sapiens, read-out: LC50) of 67.2 µM. The “Percent Growth” value (SN12C; Log10 Concentration −4.0 Molar) was −66%, the “Percent Growth” value (SN12C; Log10 Concentration −5.0 Molar) was 27% and the “Percent Growth” value (SN12C; Log10 Concentration −6.0 Molar) was 79%. The “Percent Growth” value (SN12C; Log10 Concentration −7.0 Molar) was 93%, the “Percent Growth” value (SN12C; Log10 Concentration −8.0 Molar) was 97% and the TGI (HCC-2998; HCC-2998) was 2.04E−5 Molar. For the same molecule, the “Percent Growth” value (HCC-2998; HCC-2998, Log10 Concentration −4.0 Molar) was −97%, the “Percent Growth” value (HCC-2998; HCC-2998, Log10 Concentration −5.0 Molar) was 43% and the “Percent Growth” value (HCC-2998; HCC-2998, Log10 Concentration −6.0 Molar) was 62%. The “Percent Growth” value (HCC-2998; HCC-2998, Log10 Concentration −7.0 Molar) was 86%, the “Percent Growth” value (HCC-2998; HCC-2998, Log10 Concentration −8.0 Molar) was 85% and the GI50 (HCC-2998; Homo sapiens, HCC 2998) was 4.33 µM. The CC50 (HCC-2998; Homo sapiens, HCC 2998, read-out: LC50) was 46.2 µM, the TGI (ACHN) was 2.25E−5 Molar and the GI50 (ACHN; Homo sapiens) was 2.88 µM. For the same molecule, the CC50 (ACHN; Homo sapiens, read-out: LC50) was over 100 µM, the “Percent Growth” value (ACHN; Log10 Concentration −4.0 Molar) was −30% and the “Percent Growth” value (ACHN; Log10 Concentration −5.0 Molar) was 16%. The “Percent Growth” value (ACHN; Log10 Concentration −6.0 Molar) was 76%, the “Percent Growth” value (ACHN; Log10 Concentration −7.0 Molar) was 92% and the “Percent Growth” value (ACHN; Log10 Concentration −8.0 Molar) was 99%.
